The NIST ThermoML archive (doi:10.1016/j.fluid.2010.03.040)

Details: Capillary rise

COCCOC [1,2-dimethoxyethane]
Details | surface tension liquid-gas [mN/m]
278.17 K | 26.52
283.17 K | 25.97
288.18 K | 25.28
293.17 K | 24.67
298.03 K | 23.94
303.15 K | 23.42
308.12 K | 22.84
313.16 K | 22.25
318.17 K | 21.56
323.18 K | 21.02
328.17 K | 20.41
333.17 K | 19.83
338.17 K | 19.29
343.17 K | 18.74
348.17 K | 18.12
353.18 K | 17.59
358.17 K | 16.91
363.17 K | 16.35
368.17 K | 15.74
373.17 K | 15.23

CCOC(=O)CCCCC(=O)OCC [diethyl hexanedioate]
Details | surface tension liquid-gas [mN/m]
293.16 K | 32.7
298.09 K | 32.2
303.17 K | 31.6
308.11 K | 31
313.18 K | 30.3
318.15 K | 29.7
323.17 K | 29.2
328.12 K | 28.7
333.16 K | 28.3
338.16 K | 27.7
343.15 K | 27.2
348.13 K | 26.6
353.16 K | 26.2
358.13 K | 25.8
363.13 K | 25.3
368.15 K | 24.8
373.14 K | 24.3

CCOC(=O)OCC [diethyl carbonate]
Details | surface tension liquid-gas [mN/m]
273.18 K | 29.15
278.18 K | 28.63
283.18 K | 28.07
288.18 K | 27.48
293.16 K | 26.81
298.1 K | 26.26
303.17 K | 25.64
308.11 K | 25.14
313.19 K | 24.48
318.16 K | 24.03
323.16 K | 23.47
328.12 K | 22.98
333.18 K | 22.35
338.17 K | 21.81
343.17 K | 21.23
348.17 K | 20.69
353.19 K | 20.16
358.18 K | 19.64
363.16 K | 19.13
368.18 K | 18.69
373.17 K | 18.01
